Data on 4 compounds can be found in patent US20250387334A1, “Oxyanion azide-benzaldehyde acetal acid-degradable lipids” (The Regents of the University of California, priority 2023, published 2025).

Series [1] is described as follows: Hydrolysis kinetics of compounds 1-3 and their reduced forms (plate reader, mass spectrum). The format is physicochemical. The settings on record: for half-life: buffer; for compound detected in the buffer by mass spectrum: 6 hours. The text has this:
Engineering PEG-lipids to rapidly hydrolyze in endosomes has the potential to generate LNPs that have high levels of PEGylation and also transfect cells efficiently^10, 19, 20. The PEG-lipid reduces LNP toxicity and enhances LNP diffusion through tissue. However, LNPs are currently made with 0.5-1.5 mole percent of the PEG-lipid because increasing PEGylation levels beyond these levels can have detrimental effects. For example, the PEG-lipid lowers endosomal disruption by preventing the mixing of the ionizable lipid with endosomal lipids^20, 21 and causes the formation of anti-PEG antibodies^22. LNPs made with acid-degradable PEG-lipids should transfect cells efficiently even at high levels of PEGylation because they will hydrolyze off the LNP after endocytosis and will be released from the LNP surface. In addition, the immunogenicity of PEG dramatically increases after conjugation to lipids, and acid-degradable PEG-lipids may also have lower immunogenicity than traditional PEG-lipids because they will rapidly generate free PEG after endocytosis^22, 23.

A short description of series [2]: DTT reduction kinetics of compound 4. The class given is physicochemical.
The nature of series [3]: Acid-catalyzed hydrolysis kinetics of model azido-acetal 4 and its reduced form 5. The class given is physicochemical. The text has this:
RD-LNPs are based upon the rapid hydrolysis of the azido-acetal linker at pH 6.0. We synthesized the model azido-acetal 4 and measured its acid-catalyzed hydrolysis rate before and after reduction to investigate whether reductive activation accelerates the hydrolysis kinetics of an azido-acetal. […] The azido-acetal has the stability needed for performing multi-step organic reactions and should enable the development of new materials that are hypersensitive to acidic conditions. […] In addition, the reduced azido-acetal hydrolyzes with a t1/2<30 minutes at pH 6.0 and has the hydrolysis kinetics needed to degrade in endosomes before trafficking to lysosomes occurs4. The two-step hydrolysis mechanism of the azido-acetal overcomes the stability problems preventing the development of rapidly hydrolyzing lipids and provides a general strategy for developing lipids and materials that rapidly hydrolyze at endosomal pHs.

The conditions of series [4]: IL-22 protein; cited from earlier work.

Regarding `COCCOCCOCCOCCOCCOCCOCCOCCOCCOCCOCCOCCOCCOCCOCCOCCOCCOCCOCCOCCOCCOCCOCCOCCOCCOCCOCCOCCOCCOCCOCCOCCOCCOCCOCCOCCOCCOCCOCCOCCOCCOCCOCCOCCOCCOC(=O)NCCOC(OCCNC(=O)O[C@H]1CC[C@@]2(C)C(=CC[C@H]3[C@@H]4CC[C@H]([C@H](C)CCCC(C)C)[C@@]4(C)CC[C@@H]32)C1)c1ccc(N=[N+]=[N-])cc1` (some centres unmarked) [Compound 1], the half-life in series [1] (pH 4.0, read-out: t1/2 (minute) pH 4.0) was 54.8 ± 3.89 min; in series [1] (pH 5.0, read-out: t1/2 (minute) pH 5.0) it was 192 ± 28.3 min; in series [1] (pH 6.0, cell prints day, read-out: t1/2 pH 6.0) it was 4280 min; in series [1] (pH 7.4, cell prints day, read-out: t1/2 pH 7.4 (converted)), 28500 min.

For the compound `CC(C)CCC[C@@H](C)[C@H]1CC[C@H]2[C@@H]3CC=C4C[C@@H](OC(=O)NCCOC(OCC[N+](C)(C)C)c5ccc(N=[N+]=[N-])cc5)CC[C@]4(C)[C@H]3CC[C@]12C` (some centres unmarked) [Compound 3], the “compound detected in the buffer by mass spectrum” value is reported as “nearly no compound 3 was detected” in series [1] (pH 4 and pH 5, 37° C.); “a large amount” in series [1] (pH 6 and pH 7.4, 37° C.).

Consider `COC(=O)NCCOC(OCCNC(=O)OC)c1ccc(N=[N+]=[N-])cc1` [Compound 4], for which the half-life in series [2] (10 mM DTT solution (chemical reduction), read-out: DTT reduction t1/2 (minute) 10 mM) came out at 26.4 ± 3.37 min; in series [2] (25 mM DTT solution (chemical reduction), read-out: DTT reduction t1/2 (minute) 25 mM), 14.2 ± 0.5 min; in series [2] (50 mM DTT solution (chemical reduction), read-out: DTT reduction t1/2 (minute) 50 mM) it was 11.9 ± 1.85 min; in series [2] (100 mM DTT solution (chemical reduction), read-out: DTT reduction t1/2 (minute) 100 mM), 7.21 ± 0.11 min; in series [3] (buffer, pH 4), 0.0567 ± 0.00133 h; in series [3] (buffer, pH 5), 0.619 ± 0.0115 h. The half-life is 8.57 ± 0.117 h in series [3] (buffer, pH 6) and 507 h in series [3] (pH 7.4). The predicted hydrolysis half-life in series [3] (pH 7.4) is on record as 21 days. In addition, in series [3] (pH 7.4, 6.5 hours), the “hydrolysis after 6.5 hours” value was “under 1%”.

Consider IL-22: soluble IL-22 protein, cytokine, for which the circulation half-life entry in series [4] was “under 2 hours”.
